In PubChem BioAssay (NCI):
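Test compounds were applied to cells in 96-well plates for 48 hours at 5 doses. TGI marks complete inhibition of growth.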

What was measured:
Assay in all cases: DTP human tumour cell line panel, 48 h
[1] = test system: HS 578T breast
[2] = test system: MALME-3M melanoma
[3] = test system: SW-620 colon
[4] = test system: HT29 colon
[5] = test system: A549 NSCLC
[6] = test system: UACC-62 melanoma
[7] = test system: NCI/ADR-RES ovarian
[8] = test system: NCI-H522 lung
[9] = test system: SK-OV-3 ovarian
[10] = test system: NCI-H460 lung
[11] = test system: SNB-19 CNS
[12] = test system: TK-10 renal
[13] = test system: T-47D breast
[14] = test system: IGROV1 ovarian
[15] = test system: SN12C renal
[16] = test system: OVCAR-8 ovarian
[17] = test system: OVCAR-5 ovarian
[18] = test system: SNB-75 CNS
[19] = test system: COLO 205 colon
[20] = test system: HOP-92 NSCLC
[21] = test system: KM12 colon
[22] = test system: SF-295 CNS
[23] = test system: 786-0 renal
[24] = test system: A498 renal
[25] = test system: UO-31 renal
[26] = test system: CAKI-1 renal
[27] = test system: OVCAR-4 ovarian
[28] = test system: NCI-H226 lung
[29] = test system: HL-60(TB) leukemia
[30] = test system: HCT-15 colon
[31] = test system: HCC-2998 colon
[32] = test system: MCF7 breast
[33] = test system: M14 melanoma
[34] = test system: BT-549 breast
[35] = test system: MDA-N
[36] = test system: SF-268 CNS
[37] = test system: OVCAR-3 ovarian
[38] = test system: SK-MEL-2 melanoma
[39] = test system: DU-145 prostate
[40] = test system: LOX IMVI melanoma
[41] = test system: CCRF-CEM leukemia
[42] = test system: PC-3 prostate
[43] = test system: MDA-MB-435
[44] = test system: ACHN renal
[45] = test system: MDA-MB-231 breast
[46] = test system: HOP-62 NSCLC
[47] = test system: SK-MEL-5 melanoma
[48] = test system: UACC-257 melanoma
[49] = test system: MOLT-4 leukemia
[50] = test system: NCI-H23 lung
[51] = test system: SR leukemia
[52] = test system: EKVX NSCLC
[53] = test system: HCT-116 colon
[54] = test system: SK-MEL-28 melanoma
[55] = test system: RPMI-8226 leukemia
[56] = test system: K-562 leukemia
[57] = test system: SF-539 CNS
[58] = test system: RXF 393 renal
[59] = test system: U251 CNS

## CSc1ccc(-c2cc(-c3nc4ccccc4[nH]3)no2)cc1
[1]
  TGI: > 100 µM
[2]
  TGI: > 100 µM
[3]
  TGI: > 100 µM
[4]
  TGI: 62.1 µM
[5]
  TGI: 90.8 µM
[6]
  TGI: 39.1 µM
[7]
  TGI: 64.1 µM
[8]
  TGI: 69.5 µM
[9]
  TGI: > 100 µM
[10]
  TGI: 45.7 µM
[11]
  TGI: > 100 µM
[12]
  TGI: > 100 µM
[13]
  TGI: 37.3 µM
[14]
  TGI: > 100 µM
[15]
  TGI: > 100 µM
[16]
  TGI: > 100 µM
[17]
  TGI: > 100 µM
[18]
  TGI: > 100 µM
[19]
  TGI: > 100 µM
[20]
  TGI: > 100 µM
[21]
  TGI: 68.5 µM
[22]
  TGI: > 100 µM
[23]
  TGI: > 100 µM
[24]
  TGI: > 100 µM
[25]
  TGI: 43.5 µM
[26]
  TGI: 70 µM
[27]
  TGI: 19.3 µM
[28]
  TGI: > 100 µM
[29]
  TGI: 55.3 µM
[30]
  TGI: 62.9 µM
[31]
  TGI: 32.1 µM
[32]
  TGI: 33.8 µM
[33]
  TGI: 56.2 µM
[34]
  TGI: 55.5 µM
[35]
  TGI: > 100 µM
[36]
  TGI: > 100 µM
[37]
  TGI: 55.7 µM
[38]
  TGI: 49.4 µM
[39]
  TGI: > 100 µM
[40]
  TGI: 80.1 µM
[41]
  TGI: > 100 µM
[42]
  TGI: > 100 µM
[43]
  TGI: 44.7 µM
[44]
  TGI: > 100 µM
[45]
  TGI: > 100 µM
[46]
  TGI: > 100 µM
[47]
  TGI: 33.4 µM
[48]
  TGI: 85.9 µM
[49]
  TGI: 37.2 µM
[50]
  TGI: 66 µM
[51]
  TGI: > 100 µM
[52]
  TGI: > 100 µM
[53]
  TGI: > 100 µM
[54]
  TGI: > 100 µM
[55]
  TGI: 98 µM
[56]
  TGI: 84.4 µM
[57]
  TGI: > 100 µM

## Cc1ccccc1OC(C)C(=O)NN1C(=O)CSC1c1ccc(Cl)cc1 (stereo not given)
[1]
  TGI: > 100 µM
[2]
  TGI: > 100 µM
[3]
  TGI: > 81.2 µM
[4]
  TGI: 38.6 µM
[5]
  TGI: > 100 µM
[6]
  TGI: > 100 µM
[58]
  TGI: > 86.9 µM
[7]
  TGI: > 100 µM
[8]
  TGI: > 29.4 µM
[9]
  TGI: > 92.5 µM
[10]
  TGI: > 56.8 µM
[11]
  TGI: > 100 µM
[12]
  TGI: > 100 µM
[59]
  TGI: > 93.4 µM
[13]
  TGI: > 100 µM
[14]
  TGI: > 100 µM
[15]
  TGI: 35.3 µM
[16]
  TGI: > 100 µM
[17]
  TGI: > 100 µM
[18]
  TGI: > 100 µM
[19]
  TGI: > 100 µM
[20]
  TGI: > 100 µM
[21]
  TGI: > 100 µM
[22]
  TGI: > 61.3 µM
[23]
  TGI: 34.8 µM
[24]
  TGI: 72.3 µM
[25]
  TGI: > 100 µM
[26]
  TGI: > 100 µM
[27]
  TGI: > 100 µM
[28]
  TGI: > 82.6 µM
[29]
  TGI: 47.5 µM
[30]
  TGI: > 100 µM
[31]
  TGI: > 100 µM
[32]
  TGI: > 100 µM
[33]
  TGI: > 100 µM
[34]
  TGI: 98.9 µM
[35]
  TGI: > 100 µM
[36]
  TGI: > 67.4 µM
[37]
  TGI: > 93.6 µM
[38]
  TGI: > 100 µM
[39]
  TGI: > 100 µM
[40]
  TGI: > 58.8 µM
[42]
  TGI: > 100 µM
[43]
  TGI: > 100 µM
[44]
  TGI: > 68.9 µM
[45]
  TGI: 86 µM
[46]
  TGI: 51.2 µM
[47]
  TGI: > 100 µM
[48]
  TGI: > 100 µM
[49]
  TGI: > 59.7 µM
[50]
  TGI: > 100 µM
[51]
  TGI: > 46.3 µM
[52]
  TGI: > 100 µM
[53]
  TGI: > 95.5 µM
[54]
  TGI: > 100 µM
[55]
  TGI: > 61 µM
[56]
  TGI: > 77.1 µM
[57]
  TGI: > 63.1 µM
